In patent US4851338A, “Method for diagnosing the presence of bacteria” (Biocarb AB, priority 1982, dated 1989):

What was measured:
[1] = system: haemagglutination between sheep erythrocytes and S. saprophyticus bacteria (Mc 2 and Mc 194); experiment: Inhibition of haemagglutination of sheep erythrocytes with Staphylococcus saprophyticus; assay type: cell-based; settings: for minimal effective concentration: Staphylococcus saprophyticus, Erythrocyte, read-out: Minimum inhibitory con.; for Minimum inhibitory con.: Inhibition of haemagglutination, S. saprophyticus Mc 2 and Mc 194, 2 HU bacteria
Protocol: In the tests the bacteria S. saprophyticus strains, both isolated from urine from patents having urinary tract infection, were used. The bacteria were cultivated in tryptone broth over night, pelletized by means of centrifugation and washed twice with PBS, pH 7.2. Haemagglutination was performed using erythrocytes from sheep obtained from sheep blood and washed twice with 0.85 % saline.
In the haemagglutination-indication experiments microtitre plates (Limbo Sc. Comp. Inc) were used. 25 μl of bacterial suspension were titrated in PBS by two-step titre steps, 25 μl of 1% erythrocyte suspension being then added. The haemagglutination titre was determined after incubation of the plates for 2-4 hours in room temperature.
In the inhibition experiments serial dilutions of the relevant inhibitor (50 μl/well) and 25 μl of bacterial suspension diluted to contain 2 HU haemagglutinating units of bacteria were used. The plates were incubated for 30 minutes at 37° C., 25 μl of the erythrocyte suspension being then added to each well.

[2] = system: NK-cells activity (lymphocytes) against K-562 cells; experiment: Inhibition of NK-cells activity (chromium release cytotoxicity of lymphocytes against K-562); assay type: cell-based, human; settings: for % specific cytotoxicity: ratio 20:1
Protocol: Lymphocytes isolated from peripheral blood drained from normal donors have the ability of exerting a cytotoxic, (i.e. cell killing activity against certain types of cells in culture. In the instant example there is used a human leukemia cell line called K-562 as a target cell for such cytolytic activity.
Method: K-562 cells intracellularly labelled with radioactive chromium are incubated with effector cells (lymphocytes) for 4 hours at 37° C. The cytotoxic effect is measured as the quantity of isotope released in relation to remaining isotope in the target cells. For details see Malmstrom, P., Jonsson, Å, and Sjogren, H.O. "Countercurrent distribution of lymphocytes from human peripheral blood in an aqueous two-phase system. II. Separation into subsets of lymphocytes with distinctive functions". Cell Immunol. 53:51-64, 1980. For studying inhibiting substances effector cells (6×10^6 cells/ml) are preincubated with the respective oligosaccharides diluted in cultivating medium for half an hour at 37° C. After washing with centrifugation the effector cells are transferred directly to the target cells.

[3] = system: adhesion of S. saprophyticus to urinary epithelial cells; experiment: Inhibition of adherence of S. saprophyticus to urinary epithelial cells; assay type: cell-based, Staphylococcus saprophyticus
Protocol: Cells from urinary epithelium were suspended in cell cultivation medium RPMI 1640 (Flow Ltd) to a concentration of 10^5 cells/ml.
Microorganisms of the type S. saprophyticus were suspended in RPMI 1640 to a concentration of 10^9 bacteria/ml. Oligosaccharides which were tested for their ability of preventing adhesion of S. saprophyticus to urinary epithelial cells were dissolved in RPMI 1640 to a concentration of 5 mg/ml. In the experiments 1 ml of the oligosaccharide solution was incubated with 0.1 ml bacterial suspension at 37° C. for 30 minutes. Urinary epithelial cells were incubated with the bacterial suspension incubated in advance as described above with oligosaccharide solution for 45 minutes at 37° C. As a control there was used a bacterial suspension preincubated with 1 ml RPMI 1640.
Incubated samples were filtrated through a 12μ filter and washed 3 times with PBS. The filter was pressed against microscope slides for a few seconds, the slides being then fixed in methanol for 10 minutes. The slides were dried in air and coloured with acridine orange for 2 minutes. The slides were washed, dried in air and studies in fluorescence microscope. The number of bacteria per cell was counted. In each experiment 50 cells were counted.

[4] = 0.3 mg/ml oligosaccharide, experiment 1 (without inhibitor 22.3)
[5] = 0.3 mg/ml oligosaccharide, experiment 2 (without inhibitor 32.0)
[6] = 1 mg/ml oligosaccharide, experiment 1 (without inhibitor 22.3)
[7] = 1 mg/ml oligosaccharide, experiment 2 (without inhibitor 32.0)
[8] = 3 mg/ml oligosaccharide, experiment 1 (without inhibitor 22.3)
[9] = 3 mg/ml oligosaccharide, experiment 2 (without inhibitor 32.0)

Molecule: CC(=O)NC1C(O)CC(OCC2OC(OC3C(CO)OC(O)C(O)C3O)C(O)C(O)C2O)(C(=O)O)OC1C(O)C(O)CO (stereo not drawn) [6'siallyl-lactose, α-NeuNAcp-(2-6)-β-Galp-(1-4)-Glc, reference compound]
- minimal effective concentration [1]: > 2500 µg/mL
- % specific cytotoxicity [2, 4]: 21.3%
- % specific cytotoxicity [2, 5]: 20.2%
- % specific cytotoxicity [2, 6]: 15.8%
- % specific cytotoxicity [2, 7]: 17.2%
- % specific cytotoxicity [2, 8]: 9.6%
- % specific cytotoxicity [2, 9]: 15.1%

Molecule: CO[C@@H]1O[C@H](CO)[C@@H](O[C@@H]2O[C@H](CO)[C@H](O)[C@H](O)[C@H]2O)[C@H](O)[C@H]1NC(C)=O [β-Galp-(1-4)-β-GNAcp-(1-0)-CH3]
- minimal effective concentration [1]: 250 µg/mL
- inhibition at 5000 µg/mL ([3]; Staphylococcus saprophyticus, Epithelial cell, 0.75 h, read-out: reduction of the number of adhering bacteria): ~95%

Molecule: CC(=O)N[C@H]1[C@H](O[C@@H]2[C@@H](OC[C@H]3O[C@@H](O[C@H]4[C@H](O)[C@@H](NC(C)=O)C(O)O[C@@H]4CO)[C@@H](O)[C@@H](O[C@H]4O[C@H](CO)[C@@H](O)[C@H](O)[C@@H]4O[C@@H]4O[C@H](CO)[C@@H](O[C@@H]5O[C@H](CO)[C@H](O)[C@H](O)[C@H]5O)[C@H](O)[C@H]4NC(C)=O)[C@@H]3O)O[C@H](CO)[C@@H](O)[C@@H]2O)O[C@H](CO)[C@@H](O[C@@H]2O[C@H](CO)[C@H](O)[C@H](O)[C@H]2O)[C@@H]1O (stereo partly drawn) [GM1 -octa]
- minimal effective concentration [1]: 200 µg/mL
- % specific cytotoxicity [2, 4]: 16.1%
- % specific cytotoxicity [2, 5]: 28.0%
- % specific cytotoxicity [2, 6]: 11.3%
- % specific cytotoxicity [2, 7]: 25.0%
- % specific cytotoxicity [2, 8]: 1.7%
- % specific cytotoxicity [2, 9]: 12.8%
- cytolytic effect after preincubation with the oligosaccharides ([2]; in concentrations down to 0.3 mg/ml): inhibited

Molecule: Asialotransferrin (human): Asialotransferrin (human)
- Minimum inhibitory con. [1]: 250 µg/mL

Molecule: CC(=O)N[C@H]1[C@H](O[C@H]2[C@@H](O)[C@@H](CO)O[C@H](O[C@@H]3[C@H](O)[C@@H](O)[C@H](O[C@H]4[C@H](O)[C@@H](O)C(O)O[C@@H]4CO)O[C@@H]3CO)[C@@H]2O)O[C@H](CO)[C@H](O)[C@@H]1O (stereo partly drawn) [β-GalNAcp-(1-3)-α-Galp-(1-4)-β-Galp-(1-4)-Glc]
- minimal effective concentration [1]: > 2500 µg/mL

Molecule: CC(=O)NC1C(O)CC(OC2C(O)C(CO)OC(OC3C(CO)OC(O)C(O)C3O)C2O)(C(=O)O)OC1C(O)C(O)CO (stereo not drawn) [3'siallyl-lactose, α-NeuNAcp-(2-3)-β-Galp-(1-4)-Glc, reference compound]
- minimal effective concentration [1]: > 2500 µg/mL
- % specific cytotoxicity [2, 4]: 23.9%
- % specific cytotoxicity [2, 5]: 28.7%
- % specific cytotoxicity [2, 6]: 25.2%
- % specific cytotoxicity [2, 7]: 19.7%
- % specific cytotoxicity [2, 8]: 20.0%
- % specific cytotoxicity [2, 9]: 19.1%

Molecule: OC[C@H]1O[C@@H](O[C@H]2[C@@H](O)[C@@H](CO)O[C@@H](O[C@H]3[C@@H](O)[C@@H](CO)OC(O)[C@@H]3O)[C@@H]2O)[C@H](O)[C@@H](O)[C@H]1O (stereo partly drawn) [β-Galp-(1-3)-β-Galp-(1-3)-Gal]
- minimal effective concentration [1]: > 2500 µg/mL

Molecule: Transferrin (human): Transferrin (human)
- Minimum inhibitory con. [1]: > 2500 µg/mL

Molecule: OC[C@H]1O[C@@H](O[C@H]2[C@@H](O)[C@@H](CO)OC(O)[C@@H]2O)[C@H](O)[C@@H](O)[C@H]1O (stereo partly drawn) [β-Galp-(1-3)-Gal]
- minimal effective concentration [1]: > 2500 µg/mL

Molecule: OC[C@H]1O[C@H](O[C@H]2[C@@H](O)[C@@H](CO)OC(O)[C@@H]2O)[C@H](O)[C@@H](O)[C@H]1O (stereo partly drawn) [α-Galp-(1-3)-Gal]
- minimal effective concentration [1]: > 2500 µg/mL

Molecule: CC(=O)N[C@H]1[C@H](O[C@H]2[C@@H](O)[C@@H](CO)O[C@@H](O[C@H]3[C@H](O)[C@@H](O)C(O)O[C@@H]3CO)[C@@H]2O)O[C@H](CO)[C@@H](O)[C@@H]1O[C@@H]1O[C@H](CO)[C@H](O)[C@H](O)[C@H]1O (stereo partly drawn) [β-Galp-(1-3)-β-GNAcp-(1-3)-β-Galp-(1-4)-Glc]
- minimal effective concentration [1]: > 2500 µg/mL

Molecule: CC(=O)N[C@H]1[C@H](O[C@H]2[C@@H](O)[C@@H](CO)O[C@@H](O[C@H]3[C@H](O)[C@@H](O)C(O)O[C@@H]3CO)[C@@H]2O)O[C@H](CO)[C@@H](O[C@@H]2O[C@H](CO)[C@H](O)[C@H](O)[C@H]2O)[C@@H]1O (stereo partly drawn) [β-Galp-(1-4)-β-GNAcp-(1-3)-β-Galp-(1-4)-Glc]
- minimal effective concentration [1]: 250 µg/mL

Molecule: OC[C@H]1O[C@@H](O[C@H]2[C@H](O)[C@@H](O)C(O)O[C@@H]2CO)[C@H](O)[C@@H](O)[C@H]1O (stereo partly drawn) [β-Galp-(1-4)-Glc, reference compound]
- minimal effective concentration [1]: > 2500 µg/mL
- reduction of the number of adhering bacteria (in words) ([3]; oligosaccharide 5 mg/ml, in comparison with the control test without oligosaccharides): did not reduce the number of adhering bacteria

Molecule: OC[C@H]1O[C@H](O[C@@H]2[C@H](O)[C@@H](O)[C@H](O[C@H]3[C@H](O)[C@@H](O)C(O)O[C@@H]3CO)O[C@@H]2CO)[C@H](O)[C@@H](O)[C@H]1O (stereo partly drawn) [α-Galp-(1-4)-β-Galp-(1-4)-Glc]
- minimal effective concentration [1]: > 2500 µg/mL

Molecule: OC[C@H]1O[C@@H](OC[C@H]2OC(O)[C@H](O)[C@@H](O)[C@H]2O)[C@H](O)[C@@H](O)[C@H]1O (stereo partly drawn) [β-Galp-(1-6)-Gal]
- minimal effective concentration [1]: > 2500 µg/mL

Molecule: CC(=O)N[C@H]1[C@H](O[C@@H]2[C@H](O)[C@@H](O)[C@H](O[C@H]3[C@H](O)[C@@H](O)C(O)O[C@@H]3CO)O[C@@H]2CO)O[C@H](CO)[C@@H](O[C@@H]2O[C@H](CO)[C@H](O)[C@H](O)[C@H]2O)[C@@H]1O (stereo partly drawn) [β-Gal-(1-4)-β--GNAc-(1-4)-β-Gal-(1-4)-Glc]
- reduction of the number of adhering bacteria ([3]; oligosaccharide 5 mg/ml, preincubated 30 min at 37° C., then 45 min with cells, vs control without oligosaccharides): ~96%

Molecule: OC[C@H]1O[C@H](O[C@@H]2[C@H](O)[C@@H](O)C(O)O[C@@H]2CO)[C@H](O)[C@@H](O)[C@H]1O (stereo partly drawn) [α-Galp-(1-4)-Gal]
- minimal effective concentration [1]: > 2500 µg/mL

B1: Fetuin: Fetuin (protein, UniProt P12763 19-359, looked up)
Alpha-2-HS-glycoprotein: IPLDPVAGYKEPACDDPDTEQAALAAVDYINKHLPRGYKHTLNQIDSVKVWPRRPTGEVYDIEIDTLETTCHVLDPTPLANCSVRQQTQHAVEGDCDIHVLKQDGQFSVLFTKCDSSPDSAEDVRKLCPDCPLLAPLNDSRVVHAVEVALATFNAESNGSYLQLVEISRAQFVPLPVSVSVEFAVAATDCIAKEVVDPTKCNLLAEKQYGFCKGSVIQKALGGEDVRVTCTLFQTQPVIPQPQPDGAEAEAPSAVPDAAGPTPSAAGPPVASVVVGPSVVAVPLPLHRAHYDLRHTFSGVASVESSSGEAFHVGKTPIVGQPSIPGGPVRLCPGRIRYFKI
- Minimum inhibitory con. [1]: > 2500 µg/mL
